From ChEMBL document CHEMBL4507315 (2021)

Columns and labels:
[1] = biological target: Myosin light chain kinase (Homo sapiens) (UniProt Q32MK0); conditions: Compound concentration 100.0 nM
[2] = biological target: Receptor-type tyrosine-protein kinase FLT3 (Homo sapiens) (UniProt P36888); conditions: Compound concentration 100.0 nM
[3] = biological target: Serine/threonine-protein kinase 33 (Homo sapiens) (UniProt Q9BYT3); conditions: Compound concentration 100.0 nM
[4] = biological target: Serine/threonine-protein kinase NIM1 (Homo sapiens) (UniProt Q8IY84); conditions: Compound concentration 100.0 nM
[5] = biological target: Atypical kinase COQ8B, mitochondrial (Homo sapiens) (UniProt Q96D53); conditions: Compound concentration 100.0 nM
[6] = biological target: Aurora kinase C (Homo sapiens) (UniProt Q9UQB9); conditions: Compound concentration 100.0 nM
[7] = test system: Epidermal growth factor receptor (Homo sapiens), P00533 [UNDEFINED MUTATION]; conditions: Compound concentration 100.0 nM
[8] = biological target: MAP kinase-interacting serine/threonine-protein kinase 1 (Homo sapiens) (UniProt Q9BUB5); conditions: Compound concentration 100.0 nM
[9] = biological target: Tyrosine-protein kinase receptor Tie-1 (Homo sapiens) (UniProt P35590); conditions: Compound concentration 100.0 nM
Tyrosine-protein kinase receptor Tie-1 (Homo sapiens), sequence (P35590 whole entry): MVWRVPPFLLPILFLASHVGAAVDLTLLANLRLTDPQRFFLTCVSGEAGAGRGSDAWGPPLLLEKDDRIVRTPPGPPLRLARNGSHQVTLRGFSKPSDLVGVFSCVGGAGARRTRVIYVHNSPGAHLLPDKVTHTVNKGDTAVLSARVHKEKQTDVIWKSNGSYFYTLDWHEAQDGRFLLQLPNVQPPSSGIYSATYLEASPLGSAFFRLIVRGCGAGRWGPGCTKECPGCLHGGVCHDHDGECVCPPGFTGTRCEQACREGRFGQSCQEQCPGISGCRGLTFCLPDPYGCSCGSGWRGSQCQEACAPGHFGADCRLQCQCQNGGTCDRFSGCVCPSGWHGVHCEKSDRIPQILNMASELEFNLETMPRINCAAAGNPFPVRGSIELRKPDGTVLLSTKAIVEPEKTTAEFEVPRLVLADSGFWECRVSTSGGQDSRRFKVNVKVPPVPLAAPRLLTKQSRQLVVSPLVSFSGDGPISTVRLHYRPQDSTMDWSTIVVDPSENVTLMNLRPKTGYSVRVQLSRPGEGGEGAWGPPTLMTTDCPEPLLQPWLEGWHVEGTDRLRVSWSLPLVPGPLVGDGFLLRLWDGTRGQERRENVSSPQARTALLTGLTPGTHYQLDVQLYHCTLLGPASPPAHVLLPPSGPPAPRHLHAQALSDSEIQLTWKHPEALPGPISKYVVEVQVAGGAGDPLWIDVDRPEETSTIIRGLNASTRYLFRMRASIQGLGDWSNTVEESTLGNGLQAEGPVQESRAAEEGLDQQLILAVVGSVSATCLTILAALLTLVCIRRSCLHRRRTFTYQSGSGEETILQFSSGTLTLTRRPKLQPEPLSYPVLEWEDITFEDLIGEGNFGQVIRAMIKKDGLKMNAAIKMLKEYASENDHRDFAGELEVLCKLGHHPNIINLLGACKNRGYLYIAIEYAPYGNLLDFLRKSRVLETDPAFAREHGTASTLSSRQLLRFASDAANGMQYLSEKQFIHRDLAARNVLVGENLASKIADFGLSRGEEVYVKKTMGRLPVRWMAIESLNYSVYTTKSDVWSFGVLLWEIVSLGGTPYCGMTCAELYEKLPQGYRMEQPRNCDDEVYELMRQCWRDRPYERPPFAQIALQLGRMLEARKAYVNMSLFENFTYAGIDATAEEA

[10] = biological target: Cyclin-dependent kinase 17 (Homo sapiens) (UniProt Q00537); conditions: Compound concentration 100.0 nM
[11] = test system: Epidermal growth factor receptor (Homo sapiens), P00533 [G719S]; conditions: Compound concentration 100.0 nM
[12] = test system: Epidermal growth factor receptor (Homo sapiens), P00533 [UNDEFINED MUTATION]; conditions: Compound concentration 100.0 nM; remark: listed apart in the source
[13] = biological target: Serine/threonine-protein kinase 4 (Homo sapiens) (UniProt Q13043); conditions: Compound concentration 100.0 nM
[14] = biological target: Tyrosine-protein kinase BTK (Homo sapiens) (UniProt Q06187); conditions: Compound concentration 100.0 nM
[15] = biological target: Serine/threonine-protein kinase Nek7 (Homo sapiens) (UniProt Q8TDX7); conditions: Compound concentration 100.0 nM
Serine/threonine-protein kinase Nek7 (Homo sapiens), sequence (Q8TDX7 whole entry, looked up): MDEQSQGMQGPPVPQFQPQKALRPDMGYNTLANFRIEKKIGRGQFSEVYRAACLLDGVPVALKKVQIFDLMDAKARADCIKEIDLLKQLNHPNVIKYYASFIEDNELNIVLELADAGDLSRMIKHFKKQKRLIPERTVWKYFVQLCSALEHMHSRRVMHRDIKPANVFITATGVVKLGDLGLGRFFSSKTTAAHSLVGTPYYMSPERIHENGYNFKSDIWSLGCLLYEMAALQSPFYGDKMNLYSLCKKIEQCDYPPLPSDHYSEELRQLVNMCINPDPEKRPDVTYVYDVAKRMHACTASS

[16] = test system: Mast/stem cell growth factor receptor Kit (Homo sapiens), P10721 [D816H]; conditions: Compound concentration 100.0 nM
[17] = biological target: Citron Rho-interacting kinase (Homo sapiens) (UniProt O14578); conditions: Compound concentration 100.0 nM
[18] = test system: Mast/stem cell growth factor receptor Kit (Homo sapiens), P10721 [V559D]; conditions: Compound concentration 100.0 nM
[19] = biological target: Serine/threonine-protein kinase Chk2 (Homo sapiens) (UniProt O96017); conditions: Compound concentration 100.0 nM
[20] = biological target: Beta-2 adrenergic receptor (Homo sapiens) (UniProt P07550); conditions: Compound concentration 10.0 uM
[21] = biological target: 1-phosphatidylinositol 3-phosphate 5-kinase (Homo sapiens) (UniProt Q9Y2I7); conditions: Compound concentration 100.0 nM
[22] = biological target: Tyrosine-protein kinase Fer (Homo sapiens) (UniProt P16591); conditions: Compound concentration 100.0 nM
[23] = biological target: Serine/threonine-protein kinase TBK1 (Homo sapiens) (UniProt Q9UHD2); conditions: Compound concentration 100.0 nM
[24] = biological target: GABA-A receptor; anion channel (Rattus norvegicus) (UniProt O09028+P15431+P18506+P18508+P19969+P20236+P23574+P23576+P28471+P28473+P30191+P62813+P63079+P63138+Q91ZM7+Q9ES14); conditions: Compound concentration 10.0 uM
[25] = biological target: D(2) dopamine receptor (Homo sapiens) (UniProt P14416); conditions: Compound concentration 10.0 uM
[26] = biological target: Ephrin type-A receptor 5 (Homo sapiens) (UniProt P54756); conditions: Compound concentration 100.0 nM
[27] = biological target: Serine/threonine-protein kinase PAK 1 (Homo sapiens) (UniProt Q13153); conditions: Compound concentration 100.0 nM
[28] = biological target: Alpha-1B adrenergic receptor (Homo sapiens) (UniProt P35368); conditions: Compound concentration 10.0 uM
[29] = biological target: Calcium/calmodulin-dependent protein kinase type IV (Homo sapiens) (UniProt Q16566); conditions: Compound concentration 100.0 nM
[30] = biological target: Non-receptor tyrosine-protein kinase TYK2 (Homo sapiens) (UniProt P29597); conditions: Compound concentration 100.0 nM
[31] = biological target: Interferon-induced, double-stranded RNA-activated protein kinase (Homo sapiens) (UniProt P19525); conditions: Compound concentration 100.0 nM
[32] = biological target: Mitogen-activated protein kinase kinase kinase 19 (Homo sapiens) (UniProt Q56UN5); conditions: Compound concentration 100.0 nM
[33] = biological target: Serine/threonine-protein kinase 35 (Homo sapiens) (UniProt Q8TDR2); conditions: Compound concentration 100.0 nM
[34] = biological target: BDNF/NT-3 growth factors receptor (Homo sapiens) (UniProt Q16620); conditions: Compound concentration 100.0 nM
BDNF/NT-3 growth factors receptor (Homo sapiens), sequence (Q16620 32-822 limits assumed): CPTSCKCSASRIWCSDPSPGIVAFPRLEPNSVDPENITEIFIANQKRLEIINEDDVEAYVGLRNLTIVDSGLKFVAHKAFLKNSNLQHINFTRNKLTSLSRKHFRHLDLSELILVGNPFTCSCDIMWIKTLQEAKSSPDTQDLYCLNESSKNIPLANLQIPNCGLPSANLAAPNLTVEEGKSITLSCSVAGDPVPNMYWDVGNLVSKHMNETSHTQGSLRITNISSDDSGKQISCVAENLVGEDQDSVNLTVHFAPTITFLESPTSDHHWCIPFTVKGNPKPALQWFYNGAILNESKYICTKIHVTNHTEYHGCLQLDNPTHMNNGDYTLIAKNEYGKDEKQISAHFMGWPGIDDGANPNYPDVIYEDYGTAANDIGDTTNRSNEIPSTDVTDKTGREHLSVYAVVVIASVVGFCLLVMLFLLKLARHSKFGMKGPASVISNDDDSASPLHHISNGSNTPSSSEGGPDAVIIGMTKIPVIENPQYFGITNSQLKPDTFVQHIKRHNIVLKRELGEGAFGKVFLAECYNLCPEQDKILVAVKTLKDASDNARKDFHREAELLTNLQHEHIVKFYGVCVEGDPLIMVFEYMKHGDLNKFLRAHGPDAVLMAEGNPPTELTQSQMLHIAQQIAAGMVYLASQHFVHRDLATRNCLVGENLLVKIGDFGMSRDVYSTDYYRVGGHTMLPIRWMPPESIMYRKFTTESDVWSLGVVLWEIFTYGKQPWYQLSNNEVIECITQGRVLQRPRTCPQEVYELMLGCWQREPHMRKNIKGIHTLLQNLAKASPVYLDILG

[35] = biological target: Phosphatidylinositol 3-kinase C2 domain-containing subunit gamma (Homo sapiens) (UniProt O75747); conditions: Compound concentration 100.0 nM
Phosphatidylinositol 3-kinase C2 domain-containing subunit gamma (Homo sapiens), sequence (O75747 whole entry, the tested form may be a part): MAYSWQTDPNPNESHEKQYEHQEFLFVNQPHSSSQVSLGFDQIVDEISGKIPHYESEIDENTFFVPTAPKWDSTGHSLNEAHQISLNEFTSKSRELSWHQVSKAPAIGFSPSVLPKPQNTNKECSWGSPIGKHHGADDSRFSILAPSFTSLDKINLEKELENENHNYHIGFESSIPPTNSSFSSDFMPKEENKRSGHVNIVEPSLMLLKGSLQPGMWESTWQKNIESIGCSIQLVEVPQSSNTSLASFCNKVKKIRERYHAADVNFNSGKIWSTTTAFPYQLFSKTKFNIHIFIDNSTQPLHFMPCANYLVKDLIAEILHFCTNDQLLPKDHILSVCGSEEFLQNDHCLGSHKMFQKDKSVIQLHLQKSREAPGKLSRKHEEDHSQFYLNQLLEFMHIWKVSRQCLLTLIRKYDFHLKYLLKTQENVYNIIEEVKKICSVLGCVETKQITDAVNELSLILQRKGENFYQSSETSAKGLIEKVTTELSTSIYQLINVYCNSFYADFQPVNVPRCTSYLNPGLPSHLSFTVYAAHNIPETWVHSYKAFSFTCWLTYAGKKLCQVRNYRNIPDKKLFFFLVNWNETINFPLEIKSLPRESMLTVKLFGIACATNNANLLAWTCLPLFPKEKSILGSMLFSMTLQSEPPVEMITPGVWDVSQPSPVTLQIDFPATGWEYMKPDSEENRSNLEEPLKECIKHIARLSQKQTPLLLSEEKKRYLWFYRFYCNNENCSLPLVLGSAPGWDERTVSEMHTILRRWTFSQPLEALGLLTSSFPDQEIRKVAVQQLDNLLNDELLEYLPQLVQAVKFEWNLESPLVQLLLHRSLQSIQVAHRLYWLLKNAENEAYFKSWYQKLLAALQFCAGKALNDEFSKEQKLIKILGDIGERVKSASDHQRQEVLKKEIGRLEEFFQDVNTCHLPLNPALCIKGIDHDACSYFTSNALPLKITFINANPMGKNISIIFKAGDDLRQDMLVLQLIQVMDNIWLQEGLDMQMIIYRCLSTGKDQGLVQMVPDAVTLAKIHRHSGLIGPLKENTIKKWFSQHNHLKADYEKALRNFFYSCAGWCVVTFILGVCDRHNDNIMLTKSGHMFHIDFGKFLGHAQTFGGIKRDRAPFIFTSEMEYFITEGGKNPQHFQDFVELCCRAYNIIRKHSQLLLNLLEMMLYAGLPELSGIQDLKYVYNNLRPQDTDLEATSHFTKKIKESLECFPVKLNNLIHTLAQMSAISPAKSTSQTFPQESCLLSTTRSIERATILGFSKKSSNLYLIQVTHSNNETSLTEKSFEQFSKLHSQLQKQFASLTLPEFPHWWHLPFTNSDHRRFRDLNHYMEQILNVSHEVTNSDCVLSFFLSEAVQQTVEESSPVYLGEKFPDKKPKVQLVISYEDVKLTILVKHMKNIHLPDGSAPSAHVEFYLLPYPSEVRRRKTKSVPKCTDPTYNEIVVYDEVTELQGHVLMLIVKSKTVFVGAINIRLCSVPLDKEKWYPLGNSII

[36] = biological target: Serine/threonine-protein kinase D3 (Homo sapiens) (UniProt O94806); conditions: Compound concentration 100.0 nM
Serine/threonine-protein kinase D3 (Homo sapiens), sequence (O94806 whole entry): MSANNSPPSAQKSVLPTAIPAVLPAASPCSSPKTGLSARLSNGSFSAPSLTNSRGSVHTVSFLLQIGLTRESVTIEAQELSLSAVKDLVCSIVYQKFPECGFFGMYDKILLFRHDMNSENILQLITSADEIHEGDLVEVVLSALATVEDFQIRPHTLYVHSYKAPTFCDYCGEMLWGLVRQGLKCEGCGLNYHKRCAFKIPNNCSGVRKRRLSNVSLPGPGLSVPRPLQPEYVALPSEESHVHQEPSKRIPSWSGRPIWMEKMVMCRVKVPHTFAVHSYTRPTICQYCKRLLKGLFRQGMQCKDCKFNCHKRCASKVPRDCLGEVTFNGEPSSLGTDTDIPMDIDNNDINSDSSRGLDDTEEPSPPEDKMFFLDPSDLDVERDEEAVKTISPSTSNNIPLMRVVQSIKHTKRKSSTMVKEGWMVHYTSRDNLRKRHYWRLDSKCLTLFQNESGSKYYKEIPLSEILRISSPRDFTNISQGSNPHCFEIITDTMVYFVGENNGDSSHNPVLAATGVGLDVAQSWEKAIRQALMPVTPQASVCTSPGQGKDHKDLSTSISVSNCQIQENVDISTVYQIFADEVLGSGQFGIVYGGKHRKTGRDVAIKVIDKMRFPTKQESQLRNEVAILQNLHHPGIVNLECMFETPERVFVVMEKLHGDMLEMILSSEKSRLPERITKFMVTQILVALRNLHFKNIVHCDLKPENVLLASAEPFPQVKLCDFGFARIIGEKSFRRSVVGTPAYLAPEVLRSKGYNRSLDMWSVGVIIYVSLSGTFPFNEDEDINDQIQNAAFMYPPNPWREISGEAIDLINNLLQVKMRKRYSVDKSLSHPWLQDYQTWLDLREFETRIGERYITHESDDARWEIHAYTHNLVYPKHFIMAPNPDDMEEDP

[37] = biological target: Leukocyte tyrosine kinase receptor (Homo sapiens) (UniProt P29376); conditions: Compound concentration 100.0 nM
[38] = biological target: Bone morphogenetic protein receptor type-1B (Homo sapiens) (UniProt O00238); conditions: Compound concentration 100.0 nM
[39] = biological target: Serine/threonine-protein kinase pim-3 (Homo sapiens) (UniProt Q86V86); conditions: Compound concentration 100.0 nM
[40] = biological target: MAP/microtubule affinity-regulating kinase 3 (Homo sapiens) (UniProt P27448); conditions: Compound concentration 100.0 nM
[41] = biological target: Mitogen-activated protein kinase 10 (Homo sapiens) (UniProt P53779); conditions: Compound concentration 100.0 nM
[42] = biological target: Serine/threonine-protein kinase Nek2 (Homo sapiens) (UniProt P51955); conditions: Compound concentration 100.0 nM
[43] = biological target: Mu-type opioid receptor (Homo sapiens) (UniProt P35372); conditions: Compound concentration 10.0 uM
[44] = biological target: Cyclin-dependent kinase 4 (Homo sapiens) (UniProt P11802); conditions: Compound concentration 100.0 nM

SMILES: Nc1c(C(=O)NCc2ccc(C(=O)NCCCC3CCCCC3)cc2)cnn1-c1ccccc1 [SR-318]
- residual activity [1]: 100%
- residual activity [2]: 100%
- residual activity [3]: 96%
- residual activity [4]: 81%
- residual activity [5]: 100%
- residual activity [6]: 100%
- residual activity [7]: 100%
- residual activity [8]: 82%
- residual activity [9]: 100%
- residual activity [10]: 78%
- residual activity [11]: 84%
- residual activity [12]: 98%
- residual activity [13]: 100%
- residual activity [14]: 100%
- residual activity [15]: 99%
- residual activity [16]: 61%
- residual activity [17]: 100%
- residual activity [18]: 45%
- residual activity [19]: 88%
- inhibition [20]: 6.62%
- residual activity [21]: 100%
- residual activity [22]: 90%
- residual activity [23]: 96%
- inhibition [24]: 21.7%
- inhibition [25]: 15%
- residual activity [26]: 100%
- residual activity [27]: 100%
- inhibition [28]: 8.69%
- residual activity [29]: 98%
- residual activity [30]: 88%
- residual activity [31]: 54%
- residual activity [32]: 77%
- residual activity [33]: 100%
- residual activity [34]: 85%
- residual activity [35]: 100%
- residual activity [36]: 92%
- residual activity [37]: 100%
- residual activity [38]: 100%
- residual activity [39]: 91%
- residual activity [40]: 78%
- residual activity [41]: 100%
- residual activity [42]: 100%
- inhibition [43]: 41.2%
- residual activity [44]: 100%

SMILES: O=C(NCCCC1CCCCC1)c1ccc(CNC(=O)c2cnn(-c3ccccc3)c2C(F)(F)F)cc1 [SR-321]
- residual activity [1]: 92%
- residual activity [2]: 100%
- residual activity [3]: 87%
- residual activity [4]: 70%
- residual activity [5]: 100%
- residual activity [6]: 100%
- residual activity [7]: 100%
- residual activity [8]: 98%
- residual activity [9]: 100%
- residual activity [10]: 100%
- residual activity [11]: 80%
- residual activity [12]: 100%
- residual activity [13]: 100%
- residual activity [14]: 100%
- residual activity [15]: 97%
- residual activity [16]: 78%
- residual activity [17]: 86%
- residual activity [18]: 100%
- residual activity [19]: 100%
- inhibition [20]: 12.4%
- residual activity [21]: 65%
- residual activity [22]: 98%
- residual activity [23]: 100%
- inhibition [24]: -4.39%
- inhibition [25]: 15.8%
- residual activity [26]: 92%
- residual activity [27]: 92%
- inhibition [28]: -3.62%
- residual activity [29]: 100%
- residual activity [30]: 100%
- residual activity [31]: 64%
- residual activity [32]: 89%
- residual activity [33]: 100%
- residual activity [34]: 100%
- residual activity [35]: 100%
- residual activity [36]: 99%
- residual activity [37]: 100%
- residual activity [38]: 92%
- residual activity [39]: 100%
- residual activity [40]: 94%
- residual activity [41]: 100%
- residual activity [42]: 100%
- inhibition [43]: 19.4%
- residual activity [44]: 100%
